Like-named read-outs stand apart in the source and are kept apart here.
Biological target: T1, novel bilirubin oxidase M-1 of Trachyderma tsunodae K-2593 (Trachydermella tsunodae, UniProt O61263)
T1 sequence (O61263 22-521): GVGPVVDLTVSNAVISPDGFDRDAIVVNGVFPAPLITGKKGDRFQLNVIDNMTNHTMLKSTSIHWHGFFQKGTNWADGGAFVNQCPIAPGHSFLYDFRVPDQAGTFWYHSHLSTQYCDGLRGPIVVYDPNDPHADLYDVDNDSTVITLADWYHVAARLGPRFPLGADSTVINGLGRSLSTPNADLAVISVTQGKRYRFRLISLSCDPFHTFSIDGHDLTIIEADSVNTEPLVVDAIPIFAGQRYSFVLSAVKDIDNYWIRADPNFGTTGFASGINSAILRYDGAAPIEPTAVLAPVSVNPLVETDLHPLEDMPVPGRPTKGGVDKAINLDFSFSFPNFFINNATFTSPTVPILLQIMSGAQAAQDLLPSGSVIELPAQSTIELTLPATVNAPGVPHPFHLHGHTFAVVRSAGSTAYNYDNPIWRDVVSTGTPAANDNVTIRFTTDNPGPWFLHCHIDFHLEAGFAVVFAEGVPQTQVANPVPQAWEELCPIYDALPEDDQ
Assay: Effect of interfering agents on bilirubin oxidase activity (decrease in absorption at 460 nm of bilirubin)
Assay type: biochemical
Details: 10 min

[1] = pH 7, additive 1 mM, read-out: Percent interference (%)
[2] = pH 7, read-out: Percent interference (%)

SMILES	inhibition at 1000 µM [1]	inhibition at 1000 µM [2]
O[C@H](CS)[C@H](O)CS (racemic) [Dithiothreitol]	86%	–
OCCS [2-Mercaptoethanol]	31%	–
O=C(O)CN(CCN(CC(=O)O)CC(=O)O)CC(=O)O [EDTA]	–	59%
O=C(O)CI [Iodoacetic acid]	–	10%
O=C1O[C@H]([C@@H](O)CO)C(O)=C1O [L-ascorbic acid]	100%	–
N[C@@H](CS)C(=O)O [L-cysteine]	74%	–
N[C@@H](CCC(=O)N[C@@H](CS)C(=O)NCC(=O)O)C(=O)O [Reduced glutathione]	–	38%
c1cnc2c(c1)ccc1cccnc12 [o-Phenanthroline]	34%	–
c1ccc(-c2ccccn2)nc1 [α,α'-Dipyridyl]	–	30%
